For this test, the system named is T1, polyphenol oxidase (PPO) from quince leaves.
T1 construct: isoenzyme not identified; free enzyme
In words: absorbance at […] nm, Lineweaver-Burk. The following applies: free enzyme, partially purified; optimum pH and temperature (pH 7.5, 30 °C), phosphate buffer. It is filed as biochemical, Cydonia oblonga.

On to `Oc1ccccc1O` [catechol], for which the Km (in general, the substrate concentration at which the rate is half of its maximum) stood at 5.86 mM.

(Values after article PMC3918733, “The Enzymatic Decolorization of Textile Dyes by the Immobilized Polyphenol Oxidase from Quince Leaves” (The Scientific World Journal, 2014).)
